Literature values as cited in US20050042301A1, “Method of use of Xenon-133 for the treatment of AIDS, other viral and non-viral infections” (priority 2003, published 2005).

Details: stable xenon; b17 says distributed in the body, b20 says formed in vitro

size range of gas microbubbles (diameter): 5-10 microns
SMILES: [131Xe] [Xe-131, Xenon-131]
